We go through two compounds from publication PMC5764437, “Discovery of novel, orally bioavailable, antileishmanial compounds using phenotypic screening” (PLoS Neglected Tropical Diseases, 2017).

Structures are written as SMILES. Read-outs that look alike come from different tables or passages of the source.

Broadly, the EC50 is the concentration at which the effect is half-maximal. As a reminder, the Cmax is the peak of the concentration-time curve. Broadly, the Tmax is the time at which the peak concentration occurs. A word on the AUC: it is the area under the concentration-time curve, a measure of exposure. A lower AUC goes with less exposure. Usually t½ stands for the time needed for the level to fall by half in the phase considered.

The nature of series [1]: Liver microsomal stability, rat. Particulars: liver microsomes, pH 7.4. As for the experimental part:
(§1) One part of 10 mM DMSO compound stock was mixed with 4 parts of acetonitrile to make 2 mM diluted compound stock in DMSO and acetonitrile. 29.1 µL diluted compound stock was added to 2.3 mL liver microsomal solution and vortexed to make microsomal solution with compound. […] For the 0 h time point, 450 µL pre-cooled (4 °C) internal standard (10 µM warfarin in methanol) was added to the first three columns before the reaction was initiated. 1.25 ml of microsome assay solution A (Fisher Scientific, #NC9255727) was combined with 0.25 ml of solution B (Fisher Scientific, #NC9016235) in 3.5 ml of potassium phosphate buffer (0.1 M, pH 7.4). 45 µL of this A+B solution was added to each well of the 96-well storage plate (reaction plate). Liquid in the first 3 columns was moved to another storage plate (quenched plate). The reaction plate was then sealed, incubated at 37 °C, and shaken at a speed of 60 rpm. Time points (0.5 h, 1 h, 2 h) were taken. At each time point, 450 µL pre-cooled internal standard was added to 3 rows in the reaction plate, and the liquid was then transferred to the quenched plate. […] 200 µL supernatant was transferred to a 96-well plate and analyzed by ultra-performance liquid chromatography-mass spectrometry (UPLC-MS) (Waters Inc.). The compounds and internal standard were detected by selected ion recording (SIR).

Series [2] concerns L. mexicana intracellular amastigotes. Description: Growth inhibition of intracellular amastigotes in J774A.1 macrophages (Renilla luciferase luminescence). Particulars: Leishmania mexicana, J774.A1; intracellular amastigotes in J774A.1 macrophages; mean ± standard deviation, n = 2; read-out: L. mexicana EC50. It counts as cell-based. As for the experimental part: L. mexicana (MNYZ/BZ/62/M379) or L. donovani (LdBob strain) parasites expressing the Renilla luciferase gene from a rRNA gene locus were used to infect J774A.1 macrophages. Growth of intracellular amastigotes was measured using a luminescence assay, as detailed previously. The growth inhibitor activities of compounds were tested against bloodstream form Lister 427 T. brucei in 96-well plates containing 1 X 10^5 parasites per well in 0.2 ml HMI-11 medium (Gibco/Thermo Fisher). Compounds (2 μl volumes in DMSO) were added to the parasites using serial 3-fold dilutions to cover a range of concentrations from about 10 μM to 1 nM. After 48 h incubation at 37°C under a humidified 5% CO2 atmosphere, 10 μl of 10% Triton X-100 and 100 X stock SYBR Green I (Sigma-Aldrich) in PBS was added and florescence measured (excitation 497 nm; emission 520 nm) after 1 h incubation in the dark using a Spectra Max Gemini XPS fluorimeter (Molecular Devices). Data were log transformed and EC50 values were determined using GraphPad Prism 6 (GraphPad Software). In the absence of growth inhibiting compounds, the parasites grew from an initial density of 5 X 10^5 cells/mL to ~3 X 10^6 cells/mL.
[…]. These were chosen as candidates for further study. From these 230 compounds, we were able to repurchase 113 from commercial vendors. These compounds were characterized for purity by ultra-performance liquid chromatography using ultraviolet spectroscopy and evaporative light scattering detection and identity by mass spectrometry. All validated compounds were profiled for activity against intracellular amastigotes, the disease-causing stage of the life cycle. Intracellular amastigote activity was determined using a strain of L. mexicana in which the Renilla luciferase gene was integrated into the rRNA locus, allowing robust expression for measuring amastigote growth within cultured macrophages. All 113 compounds were applied at 1 μM concentration for 96 h to J774A.1 macrophages infected with L. mexicana luciferase-expressing parasites. […].
Next, we generated dose-response curves for these 55 compounds against intracellular amastigotes and independently against J774A.1 macrophages to establish the relative potency of each compound against the pathogen and its host cell. […]. The nine remaining compounds, each representing a unique chemical scaffold (compounds 1–9, Fig 3), were designated top hits (Fig 1).

The nature of series [3]: Single oral dose pharmacokinetic study in mice. Format: in vivo, mouse. The note with it: single oral gavage; for half-life: read-out: t½ (converted). As for the experimental part: Female BALB/c mice of 17-21 grams were purchased from Charles River Laboratories (Wilmington, MA). Food and water were provided ad libitum. […] All animal received 100 ± 20 µL of compound solution in formulation (10/10/40/40: […] Animals were euthanized via cardiac puncture at 48 h post injection. Blood samples were treated with 10 µL of EDTA sodium solution to prevent coagulation. […] The supernatant (40 µL) was collected and mixed with 2 parts of Milli-Q water and centrifuged again at 4000 rpm for 20 min at 4 °C. Plasma concentration was determined with a partially validated LC/MS-MS assay with multiple reaction monitoring detection (AB Sciex, Framingham, MA). The summary of the LC/MS/MS method is provided below. The assay lower limit of quantification (LLOQ) was 4.57 nM in plasma. […] The Area Under the Concentration-Time Curve (AUC) was calculated with the linear trapezoidal, linear interpolation rule using mean concentrations and nominal times. The standard error of the AUC to the last time point (AUClast) was generated using the sparse sampling option. The terminal elimination rate (Lambda_z) and half-life (HL_Lambda_z) was determined using the default “Best Fit” method. The predicted AUC from the last time point to infinity (AUCINF_pred) was calculated as AUClast plus Clast(pred)/Lambda_z. Clearance (CL or CL/F) was calculated as Dose/AUCINF_pred. If ≥2/3rds of the observed concentrations were below LLOQ, the mean concentration was treated missing. The calibration curve was obtained as follows. The calibration was done using the same biological matrices to ensure similar recovery. […] All concentrations in the calibration range must be no more than 20% deviation. If there were any points with more than 20% deviation on the high or low end, the calibration range would be truncated. If an outlier occurred in the middle of the curve, the whole curve would be re-done. The signal: noise of the compound peak at the H/LLOQ must be greater than 5. […] The samples were tested on the same or the second day.

Series [4] can be described thus: Liver microsomal stability, human. The note with it: both, liver microsomes, pH 7.4. As for the experimental part: as §1
(In general: Microsomes from liver hold many membrane-bound enzymes, among them those of drug oxidation.)

Where [5] appears, read: female, BALB/c, mouse, plasma, po, 25 mg/kg.
Where [6] appears, read: female, BALB/c, mouse, plasma, po, 50 mg/kg.

On to `COc1ccc(-c2c(C(F)(F)F)oc3c(CN4CCN(C)CC4)c(O)ccc3c2=O)cc1OC` [Compound 4], for which the half-life at 20 μM in series [1] was over 240 min. Further, in series [2], the EC50 was 80 nM. Also, in series [3] (setting [5]), the highest level (Cmax) was 3.2 µM and the time of peak concentration (Tmax) was at most 1 h. In addition, in series [3] (female, BALB/c, mouse, plasma, po, 25 mg/kg, 25 mg/kg, plasma), the half-life was 180 min. Also, the AUC in series [3] (female, BALB/c, mouse, 25 mg/kg, plasma) was 16.7 µM·h. In series [3] (25 mg/kg), this compound had a CL of 3.13 L/h/kg and a Vd of 14.2 L/kg. Further, the t½ in series [3] (25 mg/kg, plasma) worked out at 3.2 h. Further, the half-life at 20 μM in series [4] was over 240 min.
For `Cc1ccc(-c2nc3ccccc3s2)cc1NC(=O)c1cc([N+](=O)[O-])c(N2CCN(C)CC2)cc1Cl` [Compound 5], the half-life at 20 μM in series [1] and in series [4] was over 240 min in each case. Further, in series [2], the EC50 was found to be 22 nM. Also, the Cmax in series [3] (setting [6]) came to 6.49 µM; in series [3] (50 mg/kg, plasma) it was 6.5 µM. The Tmax in series [3] (setting [6]) came to 4 h. The half-life in series [3] (female, BALB/c, mouse, plasma, po, 50 mg/kg, 50 mg/kg, plasma) is 426 min. Also, in series [3] (female, BALB/c, mouse, 50 mg/kg, plasma), the area under the curve (AUC) was 83.2 µM·h. The compound also had a CL in series [3] (50 mg/kg) of 1.15 L/h/kg. The same compound registered a Vd in series [3] (50 mg/kg) of 11.8 L/kg.
